Our source for the EC50 and IC50 values is patent publication US9199983B2, “3-aryl-6-aryl-[1,2,4]triazolo[4,3-α]pyridines as inhibitors of cell proliferation and the use thereof” (priority 2010, dated 2015).

A value given as a limit tells only on which side of the number the result lay.

For experiment [1], the system named is caspase-3 activation. In words: Caspase-3 activation (apoptosis induction) in T-47D cells. The experiment is classed as cell-based. The note with it: Homo sapiens; T47D cells, 24 h treatment; read-out: EC50 to induce caspase-3 activation, T47D. On the procedure:
(§1) Identification of 3-(2-methoxyphenyl)-6-(4-methoxyphenyl)-[1,2,4]triazolo[4,3-a]pyridine and analogs as inducers of apoptosis in solid tumor cells
(§2) Human breast cancer cell line T-47D and lung cancer cell line A549, growing in DMEM/F12+10% FBS media were seeded to a density of 20000 cells/well in 96-well cell culture plate and grew overnight (18-24 h) in CO2 cell culture incubator at 37° C. Next day the medium were removed by aspiration and […] fresh growth media was added to each well followed by […] of growth media containing 10× concentration of reference or testing compounds with 10% DMSO. Twenty four hours later, cell culture plates were centrifuged at 1000 g for 5 min and the supernatant was removed by emptying contents into a reservoir. Fifty μl of Lysis Buffer (10 mM Tris, pH7.5, 0.1M NaCl, 1 Mm EDTA, 0.01% Triton X-100) was added to each well and the plates were incubated with gentle agitation on an orbital shaker at 4° C. for 30 min. The plates were then centrifuged at 1000 g for 10 min at 4° C. and 20 μl of the supernatant was transferred from each well to a corresponding well in a black 384-well. Twenty μl of caspase-3 assay buffer (20 mM PIPES, pH7.4, 4 Mm EDTA and 0.2% CHAPS) containing 20 μM fluorogenic caspase-3 substrate ((Ac-DEVD)2-R110, AnaSpec Cat #60304-5) was added to each well. The samples were mixed by agitation and incubated at 37° C. for 3 h. The fluorescent intensity of each well was read on a fluorescent plate reader (Varioskan Flash, Thermo Fisher Scientific) with excitation wavelength at 496 nm and emission wavelength at 520 nm. The activity of compounds on caspase-3 activation was determined by plotting the relative fluorescent unit (RFU) against the testing concentrations of the compounds. The EC50 values were determined by fitting the above responding curves into Prism sigmoidal dose-response equation (GraphPad Software, Inc).

In experiment [2] the test system is Human lung cancer cell line A549. In words: MTT cancer cell cytotoxicity assay, A549. The experiment is classed as cell-based. The note with it: Homo sapiens, A549 cells, 48-72 h. In a few lines: (§3)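 Seeding: HepG2 and A549 at 3000, SMMC7721 at 5000, B16F10 at 2000 cells/well, attached overnight. Compounds (10 μM to 1 nM, triplicate) were applied for 48-72 h at 37 °C, followed by 4 h MTT. A550 minus A660 was fitted for IC50, with untreated wells as maximum and reference-drug total kill as background.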

For experiment [3], the system named is liver cancer cell line HepG2. In words: MTT cancer cell cytotoxicity assay, HepG2. To be noted: Homo sapiens, HepG2 cells, 48-72 h. The experiment is classed as cell-based, human. In a few lines:
as §3

In experiment [4] the test system is breast cancer cell line T47D. Description: MTT cancer cell cytotoxicity assay, T47D. To be noted: Homo sapiens, T47D cells, 48-72 h. The experiment is classed as cell-based, human. In a few lines:
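Human T47D breast cancer cells, cultured per ATCC recommendations with 10% fetal bovine serum and penicillin/streptomycin, were plated at 3000 cells/well in 96-well plates. After overnight attachment they were exposed in triplicate to compounds (10 μM to 1 nM) for 48-72 h. MTT was then added for 4 h and the formazan dissolved in DMSO. Absorbance at 550 nm minus 660 nm was fitted in Prism 5 to give IC50.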

In experiment [5] the test system is caspase-3 activation. Description: Caspase-3 activation (apoptosis induction) in A549 cells. The experiment is classed as cell-based. To be noted: Homo sapiens, A-549 cells, 24 h treatment, read-out: EC50 to induce caspase-3 activation, A-549. Here is the method: as §1, §2
In experiment [6] the test system is liver cancer cell line SMMC7721. In words: MTT cancer cell cytotoxicity assay, SMMC7721. The experiment is classed as cell-based, human. The note with it: Homo sapiens, SMMC-7721, SMMC7721 cells, 48-72 h. In a few lines:
as §3

Experiment [7] relates to mouse melanoma cell line B16F10. Description: MTT cancer cell cytotoxicity assay, B16F10. To be noted: Mus musculus, B16-F10, B16F10 cells, 48-72 h. The experiment is classed as cell-based. On the procedure:
Identification of 3-(2-methoxyphenyl)-6-(4-methoxyphenyl)-[1,2,4]triazolo[4,3-a]pyridine and analogs as inhibitors of cell proliferation that were evaluated with standard MTT cancer cell cytotoxicity assay (IC50)
Human lung cancer cell line A549, breast cancer cell line T47D, liver cancer cell lines HepG2 and SMMC7721 as well as a mouse melanoma cell line B16F10 were used in the study. The cells were cultured in corresponding growth media recommended by American Type Culture Collection (ATCC) with the supplementation of penicillin G (100 U/ml)/streptomycin (100 µg/ml), and 10% fetal bovine serum (Hangzhou Sijiqing Biological Engineering Materials, Co., Ltd. China) at 37° C. in a humidified atmosphere containing 5% CO2. Cells at about 80% confluency were harvested by trypsinization. Cells were centrifuged, re-suspended in fresh growth media and counted. Corresponding numbers of cells were seeded to 96-well cell culture plates (HepG2 cell, T-47D and A549 cells at 3000 cells/well, SMMC-7721 cells at 5000 cells/well and B16F10 cells at 2000 cells/well) in a total volume of […]. Cells were incubated in CO2 incubator over night to allow the cells to attach. In next day, […] of medium containing testing (from 10 μM to 1 nM) or reference compounds was added to each well of the cells. Media without compound were used as 100% control. Cells were treated with each concentration of compounds in triplicates to ensure data accuracy. Cells were incubated with compounds in CO2 incubator for an additional 48-72 h at 37° C. After incubation, cells were removed from the CO2 incubator and […] of 5 mg/ml MTT (3-(4,5-dimethylthiazole-2-yl)-2,5-diphenyltetrazoliumbromide, Sigma) solution in PBS was added to each well. Cells were returned to CO2 incubator and incubated for additional 4 h. After the incubation, media were removed by aspiration and […] DMSO was added to each well. Plates were sealed with aluminum foil and shaked mildly on an orbital shaker for 10 min at room temperature. The absorption was measured at 550 nm with a plate reader (Varioskan Flash, Thermo Fisher Scientific) with 660 nm reading used as background control. The relative absorbance readings were calculated by subtracting readings at 660 nm from that at 550 nm. The relative absorbance was plotted again the concentrations of the testing compounds and the plots were fitted with a one-site lg(IC50) equation using Prism 5 software (GraphPad Software, Inc). The equation used in the curve fitting is as follows: relative absorbance reading=background reading+(maximal reading−brackground reading)/(1+10 ^(compound concentration-log IC50)). The background reading used in the calculation was obtained with 100% cell death using a reference anticancer drug, whereas the maximal reading was obtained in the well with no added compound. The IC50 value calculated from the equation represents the cytotoxic potency of a particular compound.

As for `COc1ccc(-c2ccc3nnc(-c4ccccc4OC)n3c2)cc1` [Example 1, 3-(2-Methoxyphenyl)-6-(4-methoxyphenyl)-[1,2,4]triazolo[4,3-a]pyridine], the EC50 (commonly the concentration giving half of the maximal effect) in the experiment with caspase-3 activation [1] was found to be 55 nM; in the experiment on caspase-3 activation [5], 83 nM. Moreover, the IC50 (as a rule, the concentration at which inhibition is half-maximal) in experiment [2] amounted to 35 nM; in experiment [3] it was 28 nM; in experiment [4], 37 nM; in experiment [6] it was 13 nM; in experiment [7] it was 36 nM.

Turning to `COc1ccc(-c2ccc3nnc(-c4ccccc4OC)n3c2)cc1C` [Example 5, 6-(4-Methoxy-3-methylphenyl)-3-(2-methoxyphenyl)-[1,2,4]triazolo[4,3-a]pyridine], the values for the EC50 with caspase-3 activation [1] and in the experiment with caspase-3 activation [5] were 76 nM and 93 nM, respectively. Further, the IC50 in experiment [2] came to 11 nM; in experiment [3], 32 nM; in experiment [4], 40 nM; in experiment [6] it was 11 nM; in experiment [7] it was 37 nM.

Regarding `COc1ccc(-c2ccc3nnc(-c4ccccc4OC)n3c2)cc1Cl` [Example 26, 6-(3-Chloro-4-methoxyphenyl)-3-(2-methoxyphenyl)-[1,2,4]triazolo[4,3-a]pyridine], the values for the EC50 with caspase-3 activation [1] and in the experiment with caspase-3 activation [5] were 240 nM and 32 nM, respectively. Further, the IC50 was determined as 33 nM in experiment [2]; 23 nM in experiment [3]; 52 nM in experiment [4]; 12 nM in experiment [6]; 23 nM in experiment [7].

As to `COc1ccc(-c2ccc3nnc(-c4ccccc4OC)n3c2)cc1F` [Example 35, 6-(3-Fluoro-4-methoxyphenyl)-3-(2-methoxyphenyl)-[1,2,4]triazolo[4,3-a]pyridine], the EC50 in the experiment on caspase-3 activation [1] came to 228 nM; in the experiment with caspase-3 activation [5] it was 25 nM. Further, the IC50 in experiment [2] worked out at 20 nM; in experiment [3], 19 nM; in experiment [4], 68 nM; in experiment [6], 9.9 nM; in experiment [7], 16 nM.

As for `COc1ccc(-c2ccc3nnc(-c4ccc(Cl)cc4OC)n3c2)cc1` [Example 57, 3-(4-Chloro-2-methoxyphenyl)-6-(4-methoxyphenyl)-[1,2,4]triazolo[4,3-a]pyridine], the EC50 in the experiment on caspase-3 activation [1] came to 20 nM; in the experiment on caspase-3 activation [5], 5 nM. The IC50 in experiment [2] stood at 3.4 nM; in experiment [3], 3.4 nM; in experiment [4], 4.1 nM; in experiment [6] it was 6.7 nM; in experiment [7], 1.6 nM.

Consider `COc1ccc(-c2ccc3nnc(-c4ccc(Br)cc4OC)n3c2)cc1` [Example 59, 3-(4-Bromo-2-methoxyphenyl)-6-(4-methoxyphenyl)-[1,2,4]triazolo[4,3-a]pyridine], for which the EC50 in the experiment on caspase-3 activation [1] is 25 nM. The IC50 in experiment [2] came to 12 nM; in experiment [3], 7.1 nM; in experiment [4], 6.6 nM; in experiment [6] it was 3.8 nM; in experiment [7], 6.1 nM.

As to `COc1ccc(-c2ccc3nnc(-c4ccc(C)cc4OC)n3c2)cc1` [Example 66, 3-(2-Methoxy-4-methylphenyl)-6-(4-methoxyphenyl)-[1,2,4]triazolo[4,3-a]pyridine], the results for the EC50 with caspase-3 activation [1] and with caspase-3 activation [5] were 62 nM and 11 nM, respectively. The IC50 in experiment [2] came out at 12 nM; in experiment [3], 15 nM; in experiment [4], 19 nM; in experiment [6], 3.7 nM; in experiment [7], 3.4 nM.

As to `COc1ccc(-c2ccc3nnc(-c4ccc([N+](=O)[O-])cc4OC)n3c2)cc1` [Example 70, 3-(2-Methoxy-4-nitrophenyl)-6-(4-methoxyphenyl)-[1,2,4]triazolo[4,3-a]pyridine], the EC50 in the experiment with caspase-3 activation [1] turned out to be 22 nM. Also, the IC50 in experiment [2] turned out to be 6.7 nM; in experiment [3] it was 22 nM; in experiment [4], 13 nM; in experiment [6], 9.9 nM; in experiment [7] it was 4.4 nM.

On to `COc1ccc(-c2ccc3nnc(-c4ccc(Cl)cc4OC)n3c2)cc1O` [Example 89, 3-(4-Chloro-2-methoxyphenyl)-6-(3-hydroxy-4-methoxyphenyl)-[1,2,4]triazolo[4,3-a]pyridine], for which the EC50 with caspase-3 activation [1] was 2.3 nM. Also, the IC50 in experiment [2] is 1.6 nM; in experiment [3], 1.4 nM; in experiment [4], 0.84 nM; in experiment [6], greater than 10000 nM; in experiment [7], 1.1 nM.
